What all share (type): cell-based
The subject of test [1] is Ba/F3 parental generation cells. The test is described as follows: Cytotoxicity assay (CellTiter-Glo), Ba/F3 parental. The note with it: Mus musculus, BaF3, Table 2, 72 hrs. As to the method:
(§1) Inhibitory effects of example compounds on the activity of Ba/F3 parental generation, Ba/F3 KIF5B-RET, Ba/F3 KIF5B-RET^V804M, Ba/F3 KIF5B-RET^V804L, Ba/F3 KIF5B-RET^G810R, Ba/F3 FLT3-ITD, Ba/F3 FLT3-ITD^D835Y, Ba/F3 FLT3-ITD^F691L cells were determined.
(§2) Materials and reagents: fetal bovine serum FBS (GIBCO, Cat #10099141), CellTiter-Glo® Luminescent Cell Viability Assay kit (Promega, Cat #G7572), 96-well black-wall clear flat-bottom plate (Corning®, Cat #3603).
(§3) 1. Cells in the logarithmic growth phase were harvested and counted with a […]. Cell viability was detected by a trypan blue exclusion method, ensuring that cell viability was 90% or more; 2. Cell concentration was adjusted to about 3000 cells/well; 90 μl of cell suspension was added to each well of the 96-well plate; 3. The cells in the 96-well plate were incubated overnight under the condition of 37° C., 5% CO2, and 95% humidity.
(§4) 1. A series of compound solutions were formulated by 3.16-fold serial dilution starting from a concentration of 10 μM, resulting in 9 concentrations. 10 μL of the compound solutions were added in each well of the 96-well plate seeded with cells in triplicate for each compound concentration; 2. The cells in the 96-well plate added with compounds were further incubated under the condition of 37° C., 5% CO2, and 95% humidity for 72 hrs, and then CTG analysis was carried out.
(§5) 1. CTG reagent was thawed, and the cell plate was equilibrated at room temperature for 30 minutes; 2. An equal volume […] of CTG solution was added to each well; 3. The cell plate was shaken on an orbital shaker for 5 minutes to lyse the cells; 4. The cell plate was placed at RT for 20 minutes to stabilize the luminescence signal; 5. Luminescence value was read.
(§6) Data were Analyzed by GraphPad Prism 5.0 Software, and Fitted by Nonlinear S-Curve Regression to obtain a dose-response curve, from which IC50 values were calculated.
(§7) Cell survival rate (%)=(luminescence value of drug to be tested−luminescence value of culture medium control)/(luminescence value of cell control−luminescence value of culture medium control)×100%.

Test [2] has as its target T1, Ba/F3 FLT3-ITD^F691L cells (Homo sapiens, UniProt P36888, F691L, cells depend on it, form not given).
T1 construct: Ba/F3 FLT3-ITD^F691L IC50 (nM); other: CellTiter-Glo, 72 hrs
T1 sequence (P36888 1-993 F691L): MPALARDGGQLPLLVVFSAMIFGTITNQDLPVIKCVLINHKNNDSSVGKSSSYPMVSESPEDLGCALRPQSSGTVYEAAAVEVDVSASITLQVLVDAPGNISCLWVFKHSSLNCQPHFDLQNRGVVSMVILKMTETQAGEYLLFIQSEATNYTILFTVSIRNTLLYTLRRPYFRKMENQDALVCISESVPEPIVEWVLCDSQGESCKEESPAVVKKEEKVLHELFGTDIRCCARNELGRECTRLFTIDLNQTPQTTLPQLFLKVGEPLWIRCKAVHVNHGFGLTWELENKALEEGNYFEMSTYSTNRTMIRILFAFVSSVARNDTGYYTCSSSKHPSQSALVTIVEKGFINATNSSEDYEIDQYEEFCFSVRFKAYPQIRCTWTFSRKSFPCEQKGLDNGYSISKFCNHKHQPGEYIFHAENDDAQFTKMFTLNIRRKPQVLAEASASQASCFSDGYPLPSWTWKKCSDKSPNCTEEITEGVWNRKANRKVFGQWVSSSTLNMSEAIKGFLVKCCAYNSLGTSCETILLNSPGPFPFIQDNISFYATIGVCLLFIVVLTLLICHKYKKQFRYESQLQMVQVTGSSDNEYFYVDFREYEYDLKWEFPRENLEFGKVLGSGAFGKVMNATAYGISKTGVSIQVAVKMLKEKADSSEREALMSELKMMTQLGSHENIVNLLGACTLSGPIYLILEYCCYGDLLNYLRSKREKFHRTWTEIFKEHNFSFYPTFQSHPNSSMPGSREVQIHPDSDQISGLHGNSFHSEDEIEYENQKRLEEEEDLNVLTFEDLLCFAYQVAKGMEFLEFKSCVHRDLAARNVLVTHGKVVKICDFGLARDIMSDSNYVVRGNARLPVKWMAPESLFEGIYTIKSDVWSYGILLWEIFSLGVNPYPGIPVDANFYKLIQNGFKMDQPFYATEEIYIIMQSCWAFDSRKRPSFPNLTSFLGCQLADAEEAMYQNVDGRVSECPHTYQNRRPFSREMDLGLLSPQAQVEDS
The test is described as follows: Cytotoxicity assay (CellTiter-Glo), Ba/F3 FLT3-ITD F691L. The note with it: CellTiter-Glo, 72 hrs; read-out: Ba/F3 FLT3-ITD^F691L IC50. Here is the method:
as §1, §2, §3, §4, §5, §6, §7

Test [3] concerns Ba/F3 FLT3-ITD^F691L cells. The test is described as above. The note with it: ratio of Ba/F3 parental IC50 to Ba/F3 FLT3-ITD^F691L IC50. Here is the method:
as §1, §2, §3, §4, §5, §6, §7

SMILES strings stand for the structures.

Consider `CC(C)n1nc(-c2ccc(NC(=O)Nc3cc(C(F)(F)F)ccc3F)cc2)c2c(N)ncnc21` [AD80, reference compound], for which, in test [1], the IC50 was 812 nM. The GI50 in test [2] came out at 11.8 nM. Besides, in test [3], the “Ba/F3 FLT3-ITD^F691L Selectivity on parental generation” value (“Ba/F3 FLT3-ITD^F691L Selectivity” below) turned out to be 68.8.

For `CC(C)n1nc(-c2ccc(CC(=O)Nc3cc(C(C)(C)C(F)(F)F)on3)cc2)c2c(N)ncnc21` [Compound T-1, 2-(4-(4-amino-1-isopropyl-1H-pyrazolo[3,4-d]pyrimidin-3-yl)phenyl)-N-(5-(1,1,1-trifluoro-2-methylprop-2-yl)isoxazol-3-yl)acetamide], in test [1], the IC50 came to 1620 nM. For the same compound, the GI50 in test [2] turned out to be 7.7 nM. Besides, in test [3], the “Ba/F3 FLT3-ITD^F691L Selectivity” value was 210.4.

`CC(C)n1nc(-c2ccc(NC(=O)Nc3cc(C(C)(C)C(F)(F)F)on3)cc2)c2c(N)ncnc21` [Compound T-2, 1-(4-(4-amino-1-isopropyl-1H-pyrazolo[3,4-d]pyrimidin-3-yl)phenyl)-3-(5-(1,1,1-trifluoro-2-methylprop-2-yl)isoxazol-3-yl)urea]: in test [1], the IC50 worked out at 338 nM. In test [2], the GI50 amounted to 2.93 nM. The “Ba/F3 FLT3-ITD^F691L Selectivity” value in test [3] is 115.3.

Take `CC(C)n1cc(-c2ccc(CC(=O)Nc3cc(C(C)(C)C(F)(F)F)on3)cc2)c2c(N)ncnc21` [Compound T-3, 2-(4-(4-amino-7-isopropyl-7H-pyrrolo[2,3-d]pyrimidin-5-yl)phenyl)-N-(5-(1,1,1-trifluoro-2-methylprop-2-yl)isoxazol-3-yl)acetamide]: the IC50 in test [1] is 724 nM. Moreover, the GI50 in test [2] is 0.97 nM. Besides, the “Ba/F3 FLT3-ITD^F691L Selectivity” value in test [3] was 746.8.

On to `CC(C)c1nc(-c2ccc(CC(=O)Nc3cc(C(C)(C)C(F)(F)F)on3)cc2)c2c(N)nccn12` [Compound T-4, 2-(4-(8-amino-3-isopropylimidazo[1,5-a]pyrazin-1-yl)phenyl)-N-(5-(1,1,1-trifluoro-2-methylprop-2-yl)isoxazol-3-yl)acetamide], for which the IC50 in test [1] was 701 nM. The GI50 in test [2] came to 16.6 nM. The “Ba/F3 FLT3-ITD^F691L Selectivity” value in test [3] amounted to 42.2.

For `CC(C)c1cc(-c2ccc(CC(=O)Nc3cc(C(C)(C)C(F)(F)F)on3)cc2)c2c(N)ncnn12` [Compound T-5, 2-(4-(4-amino-7-isopropylpyrrolo[2,1-f][1,2,4]triazin-5-yl)phenyl)-N-(5-(1,1,1-trifluoro-2-methylprop-2-yl)isoxazol-3-yl)acetamide], the IC50 in test [1] is 4780 nM. In test [2], the GI50 is 11.4 nM. The “Ba/F3 FLT3-ITD^F691L Selectivity” value in test [3] came out at 419.6.

Take `CC(C)n1nc(-c2ccc(CC(=O)Nc3cc(C(C)(C)C(F)(F)F)on3)c(F)c2)c2c(N)ncnc21` [Compound T-6, 2-(4-(4-amino-1-isopropyl-1H-pyrazolo[3,4-d]pyrimidin-3-yl)-2-fluorophenyl)-N-(5-(1,1,1-trifluoro-2-methylprop-2-yl)isoxazol-3-yl)acetamide]: the IC50 in test [1] stood at 2100 nM. The GI50 in test [2] was found to be 6.26 nM. For the same compound, the “Ba/F3 FLT3-ITD^F691L Selectivity” value in test [3] came to 334.7.

In the case of `CC(C)n1nc(-c2ccc(CC(=O)Nc3cc(C(C)(C)C(F)(F)F)on3)cn2)c2c(N)ncnc21` [Compound T-7, 2-(6-(4-amino-1-isopropyl-1H-pyrazolo[3,4-d]pyrimidin-3-yl)pyridin-3-yl)-N-(5-(1,1,1-trifluoro-2-methylprop-2-yl)isoxazol-3-yl)acetamide], in test [1], the half-maximal inhibitory concentration (IC50) is 328 nM. The GI50 in test [2] stood at 3.22 nM. Further, in test [3], the “Ba/F3 FLT3-ITD^F691L Selectivity” value was 101.9.

Consider `CC(C)n1nc(-c2ccc(CC(=O)Nc3cc(C(C)(C)C(F)(F)F)no3)cc2)c2c(N)ncnc21` [Compound T-8, 2-(4-(4-amino-1-isopropyl-1H-pyrazolo[3,4-d]pyrimidin-3-yl)phenyl)-N-(3-(1,1,1-trifluoro-2-methylprop-2-yl)isoxazol-5-yl)acetamide], for which the IC50 in test [1] turned out to be 3680 nM. For the same compound, the GI50 in test [2] turned out to be 6.28 nM. Moreover, the “Ba/F3 FLT3-ITD^F691L Selectivity” value in test [3] was found to be 585.5.

Take `CC(C)n1nc(-c2ccc(CC(=O)Nc3cc(C(C)(C)C(F)(F)F)no3)cn2)c2c(N)ncnc21` [Compound T-9, 2-(6-(4-amino-1-isopropyl-1H-pyrazolo[3,4-d]pyrimidin-3-yl)pyridin-3-yl)-N-(3-(1,1,1-trifluoro-2-methylprop-2-yl)isoxazol-5-yl)acetamide]: the IC50 in test [1] worked out at 4120 nM. Moreover, the GI50 in test [2] came to 28.1 nM. Besides, in test [3], the “Ba/F3 FLT3-ITD^F691L Selectivity” value stood at 146.5.

`CC(C)c1nc(-c2ccc(CC(=O)Nc3cc(C(C)(C)C(F)(F)F)on3)cc2)c2c(N)ncnn12` [Compound T-10, 2-(4-(4-amino-7-isopropylimidazo[5,1-f][1,2,4]triazin-5-yl)phenyl)-N-(5-(1,1,1-trifluoro-2-methylprop-2-yl)isoxazol-3-yl)acetamide]: the IC50 in test [1] was determined as 2240 nM. Besides, the GI50 in test [2] was 39.1 nM. The “Ba/F3 FLT3-ITD^F691L Selectivity” value in test [3] is 57.3.

For `[2H]C([2H])([2H])C(n1nc(-c2ccc(CC(=O)Nc3cc(C(C)(C)C(F)(F)F)no3)cc2)c2c(N)ncnc21)C([2H])([2H])[2H]` [Compound T-11, 2-(4-(4-amino-1-(propan-2-yl-1,1,1,3,3,3-d6)-1H-pyrazolo[3,4-d]pyrimidin-3-yl)phenyl)-N-(3-(1,1,1-trifluoro-2-methylpropan-2-yl)isoxazol-5-yl)acetamide], the IC50 in test [1] was found to be 5510 nM. In addition, in test [2], the GI50 came to 13.6 nM. The “Ba/F3 FLT3-ITD^F691L Selectivity” value in test [3] turned out to be 404.9.

On to `[2H]C([2H])([2H])C(n1cc(-c2ccc(CC(=O)Nc3cc(C(C)(C)C(F)(F)F)on3)cc2)c2c(N)ncnc21)C([2H])([2H])[2H]` [Compound T-12, 2-(4-(4-amino-7-(propen-2-yl-1,1,1,3,3,d6)-7H-pyrrolo[2,3-d]pyrimidin-5-yl)phenyl)-N-(5-(1,1,1-trifluo-2-methylpropan-2-yl)isoxazol-3-yl)acetamide], for which the concentration for half-maximal inhibition (IC50) in test [1] stood at 1070 nM. Also, the GI50 in test [2] stood at 3.7 nM. In test [3], the “Ba/F3 FLT3-ITD^F691L Selectivity” value was found to be 289.7.
